The subject of the assay is T1, Cohnella sp. A01 laccase.
T1 construct: gene multicopper oxidase; recombinant in E. coli BL21, pET-26b(+) NcoI/XhoI, His-tagged, Ni-Sepharose purified
The experiment in a line: oxidation followed at […] nm, Michaelis-Menten fit. The class given is biochemical. The conditions noted are these: 0.3-2.5 mM DMP; phosphate buffer; assay pH 8 and 90 °C (optimum; not restated for the kinetics).

For the compound `COc1cccc(OC)c1O` [2,6-dimethoxyphenol], the Km came to 686 µM.

These data come from PMC6819783, “Cohnella sp. A01 laccase: thermostable, detergent resistant, anti-environmental and industrial pollutants enzyme” (Heliyon, 2019).
